Results from ChEMBL document CHEMBL2021806, “GnRH-III based multifunctional drug delivery systems containing daunorubicin and methotrexate” (Eur J Med Chem, 2012).
Activity calls are given as the source filed them. The calls are words filed in the database; no cut-off is given here.

Tests used:
[1] = tested on: MONO-MAC-6; assay: Antiproliferative activity against human MONO-MAC-6 cells assessed as cell viability at 10^-7 M after 24 hrs by cell counting method relative to untreated control; type: functional
[2] = tested on: MONO-MAC-6; assay: Antiproliferative activity against human MONO-MAC-6 cells assessed as inhibition of cell viability at 10^-9 M after 24 hrs by cell counting method; type: functional; settings: MONO-MAC-6, 24 h, values are per cent of control
[3] = tested on: MCF7; assay: Cytostatic activity against human MCF7 cells after 4 days by MTT assay; type: functional, cell-based; settings: MCF7, 96 h
[4] = tested on: LNCaP; assay: Cytostatic activity against human LNCAP cells after 4 days by MTT assay; type: functional, cell-based; settings: 96 h
[5] = tested on: HT-29; assay: Cytostatic activity against human HT-29 cells after 4 days by MTT assay; type: functional, cell-based; settings: HT-29, 96 h
[6] = tested on: MONO-MAC-6; assay: Antiproliferative activity against human MONO-MAC-6 cells assessed as inhibition of cell viability at 10^-9 M after 48 hrs by cell counting method; type: functional; settings: MONO-MAC-6, 48 h, values are per cent of control
[7] = tested on: MONO-MAC-6; assay: Antiproliferative activity against human MONO-MAC-6 cells assessed as inhibition of cell viability at 10^-9 M after 72 hrs by cell counting method; type: functional; settings: MONO-MAC-6, 72 h, values are per cent of control
[8] = tested on: MONO-MAC-6; assay: Antiproliferative activity against human MONO-MAC-6 cells assessed as inhibition of cell viability at 10^-8 M after 24 hrs by cell counting method; type: functional; settings: MONO-MAC-6, 24 h, values are per cent of control
[9] = tested on: MONO-MAC-6; assay: Antiproliferative activity against human MONO-MAC-6 cells assessed as inhibition of cell viability at 10^-8 M after 48 hrs by cell counting method; type: functional; settings: MONO-MAC-6, 48 h, values are per cent of control
[10] = tested on: MONO-MAC-6; assay: Antiproliferative activity against human MONO-MAC-6 cells assessed as inhibition of cell viability at 10^-8 M after 72 hrs by cell counting method; type: functional; settings: MONO-MAC-6, 72 h, values are per cent of control
[11] = tested on: MONO-MAC-6; assay: Antiproliferative activity against human MONO-MAC-6 cells assessed as inhibition of cell viability at 10^-7 M after 24 hrs by cell counting method; type: functional; settings: MONO-MAC-6, 24 h, values are per cent of control
[12] = tested on: MONO-MAC-6; assay: Antiproliferative activity against human MONO-MAC-6 cells assessed as inhibition of cell viability at 10^-7 M after 48 hrs by cell counting method; type: functional; settings: MONO-MAC-6, 48 h, values are per cent of control
[13] = tested on: MONO-MAC-6; assay: Antiproliferative activity against human MONO-MAC-6 cells assessed as inhibition of cell viability at 10^-7 M after 72 hrs by cell counting method; type: functional; settings: MONO-MAC-6, 72 h, values are per cent of control
[14] = tested on: MONO-MAC-6; assay: Antiproliferative activity against human MONO-MAC-6 cells assessed as inhibition of cell viability at 10^-6 M after 24 hrs by cell counting method; type: functional; settings: MONO-MAC-6, 24 h, values are per cent of control
[15] = tested on: MONO-MAC-6; assay: Antiproliferative activity against human MONO-MAC-6 cells assessed as inhibition of cell viability at 10^-6 M after 48 hrs by cell counting method; type: functional; settings: MONO-MAC-6, 48 h, values are per cent of control
[16] = tested on: MONO-MAC-6; assay: Antiproliferative activity against human MONO-MAC-6 cells assessed as inhibition of cell viability at 10^-6 M after 72 hrs by cell counting method; type: functional; settings: MONO-MAC-6, 72 h, values are per cent of control
[17] = tested on: MONO-MAC-6; assay: Antiproliferative activity against human MONO-MAC-6 cells assessed as cell viability at 10^-9 to 10^-6 M after 48 hrs by cell counting method relative to untreated control; type: functional
[18] = tested on: MONO-MAC-6; assay: Antiproliferative activity against human MONO-MAC-6 cells assessed as cell viability at 10^-9 to 10^-6 M after 72 hrs by cell counting method relative to untreated control; type: functional
[19] = tested on: MONO-MAC-6; assay: Induction of adhesion in human MONO-MAC-6 cells at 10^-8 to 10^-6 M after 24 hrs by electrical impedence method relative to control; type: functional
[20] = tested on: MONO-MAC-6; assay: Induction of adhesion in human MONO-MAC-6 cells at 10^-7 M after 1.5 hrs by electrical impedence method relative to control; type: functional
[21] = Antitumor activity against mouse C26 cells allografted in Balb/C mouse assessed as tumor growth inhibition; type: functional
[22] = tested on: MONO-MAC-6; assay: Antiproliferative activity against human MONO-MAC-6 cells assessed as cell viability at 10^-6 M after 48 hrs by cell counting method relative to untreated control; type: functional
[23] = tested on: MONO-MAC-6; assay: Antiproliferative activity against human MONO-MAC-6 cells assessed as cell viability at 10^-6 M after 24 hrs by cell counting method relative to untreated control; type: functional
[24] = tested on: MONO-MAC-6; assay: Antiproliferative activity against human MONO-MAC-6 cells assessed as cell viability at 10^-6 M after 72 hrs by cell counting method relative to untreated control; type: functional
[25] = tested on: MONO-MAC-6; assay: Induction of adhesion in human MONO-MAC-6 cells at 10^-9 M after 24 hrs by electrical impedence method relative to control; type: functional
[26] = tested on: MONO-MAC-6; assay: Induction of adhesion in human MONO-MAC-6 cells at 10^-7 to 10^-6 M after 24 hrs by electrical impedence method relative to control; type: functional, cell-based
[27] = tested on: Serum; assay: Metabolic stability in human serum at 10 uM after 24 hrs by LC-MS analysis; type: ADME, cell-free
[28] = Drug metabolism in rat lysosomal homogenate assessed as H-Lys(MTX)HDWK(Dau=Aoa)P-OH formation at 0.1 ug/ul after 24 hrs by LC-MS analysis; type: ADME, tissue-based, Lysosome; settings: tissue homogenate
[29] = tested on: Serum; assay: Metabolic stability in human serum at 10 uM after 24 hrs by RP-HPLC analysis; type: ADME, cell-free
[30] = Drug metabolism in rat lysosomal homogenate assessed as large peptide fragment EHWK(MTX)HDWK(Ac)-OH formation at 0.1 ug/ul after 24 hrs by LC-MS analysis; type: ADME, tissue-based, Lysosome; settings: tissue homogenate
[31] = tested on: MONO-MAC-6; assay: Induction of adhesion in human MONO-MAC-6 cells after 24 hrs by electrical impedence method; type: functional, cell-based
[32] = Drug metabolism in rat lysosomal homogenate assessed as H-Lys(Dau=Aoa)-OH formation at 0.1 ug/ul after 24 hrs by LC-MS analysis; type: ADME, tissue-based, Lysosome; settings: tissue homogenate
[33] = tested on: MONO-MAC-6; assay: Antiproliferative activity against human MONO-MAC-6 cells assessed as cell viability at 10^-7 to 10^-6 M after 48 hrs by cell counting method relative to untreated control; type: functional
[34] = tested on: MONO-MAC-6; assay: Antiproliferative activity against human MONO-MAC-6 cells assessed as cell viability at 10^-7 to 10^-6 M after 72 hrs by cell counting method relative to untreated control; type: functional
[35] = tested on: MONO-MAC-6; assay: Induction of adhesion in human MONO-MAC-6 cells at 10^-9 to 10^-6 M after 24 hrs by electrical impedence method relative to control; type: functional
[36] = tested on: MONO-MAC-6; assay: Induction of adhesion in human MONO-MAC-6 cells at 10^-11 to 10^-12 M after 24 hrs by electrical impedence method relative to control; type: functional, cell-based

SMILES | viability, % of control at 0.001 µM [2] | IC50 [3] | IC50 [4] | IC50 [5] | viability, % of control at 0.001 µM [6] | viability, % of control at 0.001 µM [7] | viability, % of control at 0.01 µM [8] | viability, % of control at 0.01 µM [9] | viability, % of control at 0.01 µM [10] | viability, % of control at 0.1 µM [11] | viability, % of control at 0.1 µM [12] | viability, % of control at 0.1 µM [13] | viability, % of control at 1 µM [14] | viability, % of control at 1 µM [15] | viability, % of control at 1 µM [16] | Ratio [22] | Ratio [23] | Ratio [24] | Activity [25] | Stability [27] | also measured
COc1cccc2c1C(=O)c1c(O)c3c(c(O)c1C2=O)C[C@@](O)(C(C)=O)C[C@@H]3O[C@H]1C[C@H](N)[C@H](O)[C@H](C)O1 [DAUNORUBICIN] | 97% | 0.4 µM | 0.1 µM | 0.2 µM | 36% | 21% | 95% | 35% | 17% | 59% | 26% | 14% | 46% | 27% | 16% | – | – | – | – | – | Ratio [1]: 0.85; Ratio [17]: 0.45; Ratio [18]: 0.49; Activity [19]: 121%; Activity [20]: 142%; growth inhibition (GI) [21]: 24.4%
COc1cccc2c1C(=O)c1c(O)c3c(c(O)c1C2=O)C[C@@](O)(/C(C)=N/OCC(=O)NCCCC[C@H](NC(=O)[C@H](CCC(=O)O)NC(=O)c1ccc(N(C)Cc2cnc4nc(N)nc(N)c4n2)cc1)C(=O)NCCCC[C@H](NC(=O)[C@H](Cc1c[nH]c2ccccc12)NC(=O)[C@H](CC(=O)O)NC(=O)[C@H](Cc1cnc[nH]1)NC(=O)[C@H](CO)NC(=O)[C@H](Cc1c[nH]c2ccccc12)NC(=O)[C@H](Cc1cnc[nH]1)NC(=O)[C@@H]1CCC(=O)N1)C(=O)N1CCC[C@H]1C(=O)NCC(N)=O)C[C@@H]3O[C@H]1C[C@H](N)[C@H](O)[C@H](C)O1 | 116% | 5.4 µM | 11.3 µM | 5.6 µM | 93% | 99% | 128% | 91% | 97% | 105% | 97% | 94% | 82% | 63% | 38% | 0.9 | 1 | 0.77 | 77.6% | Stable | Activity [26]: inactive; Drug metabolism [28]: Active
CC(=O)NCCCC[C@H](NC(=O)[C@H](Cc1c[nH]c2ccccc12)NC(=O)[C@H](CC(=O)O)NC(=O)[C@H](Cc1cnc[nH]1)NC(=O)[C@H](CCCCNC(=O)[C@H](CCC(=O)O)NC(=O)c1ccc(N(C)Cc2cnc3nc(N)nc(N)c3n2)cc1)NC(=O)[C@H](Cc1c[nH]c2ccccc12)NC(=O)[C@H](Cc1cnc[nH]1)NC(=O)[C@@H]1CCC(=O)N1)C(=O)N1CCC[C@H]1C(=O)NCC(N)=O | – | > 50 µM | > 50 µM | > 50 µM | – | – | – | – | – | – | – | – | – | – | – | – | – | – | – | – | Stability [29]: Stable; Drug metabolism [30]: Active
COc1cccc2c1C(=O)c1c(O)c3c(c(O)c1C2=O)C[C@@](O)(/C(C)=N/OCC(=O)NCCCC[C@H](NC(=O)[C@H](Cc1c[nH]c2ccccc12)NC(=O)[C@H](CC(=O)O)NC(=O)[C@H](Cc1cnc[nH]1)NC(=O)[C@H](CCCCNC(=O)[C@H](CCC(=O)O)NC(=O)c1ccc(N(C)Cc2cnc4nc(N)nc(N)c4n2)cc1)NC(=O)[C@H](Cc1c[nH]c2ccccc12)NC(=O)[C@H](Cc1cnc[nH]1)NC(=O)[C@@H]1CCC(=O)N1)C(=O)N1CCC[C@H]1C(=O)NCC(N)=O)C[C@@H]3O[C@H]1C[C@H](N)[C@H](O)[C@H](C)O1 | 108% | 5.8 µM | 28.8 µM | 3.6 µM | 89% | 81% | 103% | 92% | 103% | 98% | 94% | 104% | 88% | 86% | 76% | 0.98 | 1.06 | 0.95 | 135% | Stable | Activity [31]: Dose-dependent effect; Drug metabolism [32]: Active
CN(Cc1cnc2nc(N)nc(N)c2n1)c1ccc(C(=O)N[C@@H](CCC(=O)O)C(=O)O)cc1 [METHOTREXATE] | 101% | – | 0.3 µM | 1.4 µM | 97% | 96% | 102% | 94% | 60% | 89% | 52% | 27% | 80% | 52% | 29% | – | 0.95 | 0.77 | – | – | Ratio [33]: 0.98; Ratio [34]: 0.76; Activity [35]: 140%; Activity [36]: Active
